Test results published in ChEMBL document CHEMBL1146813, “Synthesis and antibacterial activity of novel bifunctional macrolides” (2004).
In brackets after ≈: the same amount, converted by molar mass.

Experiments:
Type in all cases: functional
Haemophilus influenzae = experiment: In vitro antibacterial activity against Haemophilus influenzae GYR1435 (fully susceptible strain)
Staphylococcus aureus [1] = experiment: In vitro antibacterial activity against Staphylococcus aureus 1775 (methicillin-resistant strain(MRSA))
Streptococcus pneumoniae [2] = experiment: In vitro antibacterial activity against Streptococcus pneumoniae 5649 (efflux-resistant strain bearing a mef (E) gene)
Streptococcus pneumoniae [3] = experiment: In vitro antibacterial activity against Streptococcus pneumoniae 5979 (MLSB resistant stain bearing an erm (B) gene)
Staphylococcus aureus [4] = experiment: In vitro antibacterial activity against Staphylococcus aureus NCTC 10649 (erythromycin-susceptible strain)
Streptococcus pneumoniae [5] = experiment: In vitro antibacterial activity against Streptococcus pneumoniae ATCC 6303 (an erythromycin-susceptible strain)

Compound | MIC (Haemophilus influenzae) | MIC (Staphylococcus aureus [1]) | MIC (Streptococcus pneumoniae [2]) | MIC (Streptococcus pneumoniae [3]) | MIC (Staphylococcus aureus [4]) | MIC (Streptococcus pneumoniae [5])
CC[C@H]1OC(=O)[C@H](C)C(=O)[C@H](C)[C@@H](O[C@@H]2O[C@H](C)C[C@H](N(C)C)[C@H]2O)[C@@](C)(OC)C[C@@H](C)/C(=N\OCCNCCCOCCCNCc2cc(Cl)cc(Cl)c2)[C@H](C)[C@@H](O)[C@]1(C)O | 8 µg/mL (≈ 8.7 µM) | > 128 µg/mL | 0.015 µg/mL (≈ 0.0163 µM) | 4 µg/mL (≈ 4.35 µM) | 1 µg/mL (≈ 1.09 µM) | ≤ 0.008 µg/mL
CC[C@H]1OC(=O)[C@H](C)C(=O)[C@H](C)[C@@H](O[C@@H]2O[C@H](C)C[C@H](N(C)C)[C@H]2O)[C@@](C)(OC)C[C@@H](C)/C(=N\OCCNCCCOCCCNCc2ccccc2)[C@H](C)[C@@H](O)[C@]1(C)O | 128 µg/mL (≈ 150 µM) | ≥ 128 µg/mL | 0.25 µg/mL (≈ 0.294 µM) | 1 µg/mL (≈ 1.17 µM) | 16 µg/mL (≈ 18.8 µM) | 0.12 µg/mL (≈ 0.141 µM)
CC[C@H]1OC(=O)[C@H](C)[C@@H](OC(=O)NCCCOCCCNC(=O)Cc2ccc(OC)cc2)[C@H](C)[C@@H](O[C@@H]2O[C@H](C)C[C@H](N(C)C)[C@H]2O)[C@@](C)(OC)C[C@@H](C)C(=O)[C@H](C)[C@H]2NC(=O)O[C@@]21C | 16 µg/mL (≈ 17.4 µM) | > 128 µg/mL | 0.5 µg/mL (≈ 0.543 µM) | > 128 µg/mL | 8 µg/mL (≈ 8.68 µM) | 0.5 µg/mL (≈ 0.543 µM)
CC[C@H]1OC(=O)[C@H](C)C(=O)[C@H](C)[C@@H](O[C@@H]2O[C@H](C)C[C@H](N(C)C)[C@H]2O)[C@@](C)(OC)C[C@@H](C)/C(=N\OCCNCCCOCCOCCCNc2ccc(Oc3ccccc3)cc2)[C@H](C)[C@@H](O)[C@]1(C)O | 64 µg/mL (≈ 65.8 µM) | 128 µg/mL (≈ 132 µM) | 1 µg/mL (≈ 1.03 µM) | 2 µg/mL (≈ 2.05 µM) | 2 µg/mL (≈ 2.05 µM) | 0.12 µg/mL (≈ 0.123 µM)
CC[C@H]1OC(=O)[C@H](C)C(=O)[C@H](C)[C@@H](O[C@@H]2O[C@H](C)C[C@H](N(C)C)[C@H]2O)[C@@](C)(OC)C[C@@H](C)/C(=N\OCCNCCCOCCOCCOCCCNc2ccc(Oc3ccccc3)cc2)[C@H](C)[C@@H](O)[C@]1(C)O | 32 µg/mL (≈ 31.5 µM) | 128 µg/mL (≈ 126 µM) | 1 µg/mL (≈ 0.983 µM) | 2 µg/mL (≈ 1.97 µM) | 2 µg/mL (≈ 1.97 µM) | 0.25 µg/mL (≈ 0.246 µM)
CC[C@H]1OC(=O)[C@H](C)C(=O)[C@H](C)[C@@H](O[C@@H]2O[C@H](C)C[C@H](N(C)C)[C@H]2O)[C@@](C)(OC)C[C@@H](C)/C(=N\OCCNCCCCNCc2ccc(Oc3ccccc3)cc2)[C@H](C)[C@@H](O)[C@]1(C)O | 16 µg/mL (≈ 17.8 µM) | 32 µg/mL (≈ 35.6 µM) | 0.25 µg/mL (≈ 0.278 µM) | 0.5 µg/mL (≈ 0.556 µM) | 16 µg/mL (≈ 17.8 µM) | 0.015 µg/mL (≈ 0.0167 µM)
C=CC(C)C(=O)NCCNC(=O)O[C@H]1[C@H](C)[C@@H](O[C@@H]2O[C@H](C)C[C@H](N(C)C)[C@H]2O)[C@@](C)(OC)C[C@@H](C)C(=O)[C@H](C)[C@H]2NC(=O)O[C@]2(C)[C@@H](CC)OC(=O)[C@@H]1C (stereo not given in full) | 128 µg/mL (≈ 163 µM) | > 128 µg/mL | – | > 128 µg/mL | 64 µg/mL (≈ 81.7 µM) | 0.25 µg/mL (≈ 0.319 µM)
CC[C@H]1OC(=O)[C@H](C)C(=O)[C@H](C)[C@@H](O[C@@H]2O[C@H](C)C[C@H](N(C)C)[C@H]2O)[C@@](C)(OC)C[C@@H](C)/C(=N\OCCNCCCCCCNCc2ccc(OC)cc2)[C@H](C)[C@@H](O)[C@]1(C)O | 4 µg/mL (≈ 4.62 µM) | > 128 µg/mL | 0.12 µg/mL (≈ 0.139 µM) | 2 µg/mL (≈ 2.31 µM) | 1 µg/mL (≈ 1.16 µM) | ≤ 0.008 µg/mL
CC[C@H]1OC(=O)[C@H](C)C(=O)[C@H](C)[C@@H](O[C@@H]2O[C@H](C)C[C@H](N(C)C)[C@H]2O)[C@@](C)(OC)C[C@@H](C)/C(=N\OCCNCCCNCc2ccc(Oc3ccccc3)cc2)[C@H](C)[C@@H](O)[C@]1(C)O | 13 µg/mL (≈ 14.7 µM) | 64 µg/mL (≈ 72.3 µM) | 1 µg/mL (≈ 1.13 µM) | 32 µg/mL (≈ 36.2 µM) | 32 µg/mL (≈ 36.2 µM) | 0.12 µg/mL (≈ 0.136 µM)
CC[C@H]1OC(=O)[C@H](C)C(=O)[C@H](C)[C@@H](O[C@@H]2O[C@H](C)C[C@H](N(C)C)[C@H]2O)[C@@](C)(OC)C[C@@H](C)/C(=N\OCCNCCCCCCNCc2cccc(Oc3ccccc3)c2)[C@H](C)[C@@H](O)[C@]1(C)O | 4 µg/mL (≈ 4.31 µM) | 64 µg/mL (≈ 69 µM) | 0.5 µg/mL (≈ 0.539 µM) | 0.12 µg/mL (≈ 0.129 µM) | 2 µg/mL (≈ 2.16 µM) | ≤ 0.008 µg/mL
CC[C@H]1OC(=O)[C@H](C)C(=O)[C@H](C)[C@@H](O[C@@H]2O[C@H](C)C[C@H](N(C)C)[C@H]2O)[C@@](C)(OC)C[C@@H](C)C(=O)[C@H](C)[C@@H](O)[C@]1(C)O | 64 µg/mL (≈ 109 µM) | > 128 µg/mL | 0.12 µg/mL (≈ 0.204 µM) | > 128 µg/mL | 0.5 µg/mL (≈ 0.851 µM) | 0.06 µg/mL (≈ 0.102 µM)
CC[C@H]1OC(=O)[C@H](C)C(=O)[C@H](C)[C@@H](O[C@@H]2O[C@H](C)C[C@H](N(C)C)[C@H]2O)[C@@](C)(OC)C[C@@H](C)/C(=N\OCCNCCCOCCCNCc2ccc(Cl)c(Cl)c2)[C@H](C)[C@@H](O)[C@]1(C)O | 16 µg/mL (≈ 17.4 µM) | > 128 µg/mL | 0.5 µg/mL (≈ 0.543 µM) | 0.25 µg/mL (≈ 0.272 µM) | 2 µg/mL (≈ 2.17 µM) | 0.06 µg/mL (≈ 0.0652 µM)
CC[C@H]1OC(=O)[C@H](C)C(=O)[C@H](C)[C@@H](O[C@@H]2O[C@H](C)C[C@H](N(C)C)[C@H]2O)[C@@](C)(OC)C[C@@H](C)/C(=N\OCCNCCCOCCCNCc2cnc3ccccc3c2)[C@H](C)[C@@H](O)[C@]1(C)O | 64 µg/mL (≈ 70.9 µM) | > 128 µg/mL | 0.5 µg/mL (≈ 0.554 µM) | 0.25 µg/mL (≈ 0.277 µM) | 0.5 µg/mL (≈ 0.554 µM) | 0.06 µg/mL (≈ 0.0665 µM)
CC[C@H]1OC(=O)[C@H](C)C(=O)[C@H](C)[C@@H](O[C@@H]2O[C@H](C)C[C@H](N(C)C)[C@H]2O)[C@@](C)(OC)C[C@@H](C)/C(=N\OCCNCCCOCCCNCc2cn(C)c3ccc(F)cc23)[C@H](C)[C@@H](O)[C@]1(C)O | 8 µg/mL (≈ 8.68 µM) | 64 µg/mL (≈ 69.4 µM) | 0.06 µg/mL (≈ 0.0651 µM) | 4 µg/mL (≈ 4.34 µM) | 1 µg/mL (≈ 1.08 µM) | ≤ 0.008 µg/mL
CC[C@H]1OC(=O)[C@H](C)C(=O)[C@H](C)[C@@H](O[C@@H]2O[C@H](C)C[C@H](N(C)C)[C@H]2O)[C@@](C)(OC)C[C@@H](C)/C(=N\OCCNCCCOCCCCOCCCNCc2ccc3ccccc3c2)[C@H](C)[C@@H](O)[C@]1(C)O | 32 µg/mL (≈ 32.9 µM) | > 128 µg/mL | 1 µg/mL (≈ 1.03 µM) | 1 µg/mL (≈ 1.03 µM) | 32 µg/mL (≈ 32.9 µM) | 0.12 µg/mL (≈ 0.123 µM)
CC[C@H]1OC(=O)[C@H](C)C(=O)[C@H](C)[C@@H](O[C@@H]2O[C@H](C)C[C@H](N(C)C)[C@H]2O)[C@@](C)(OC)C[C@@H](C)/C(=N\OCCNCC2CCC(CNCc3ccc(Oc4ccccc4)cc3)CC2)[C@H](C)[C@@H](O)[C@]1(C)O (stereo not given in full) | 8 µg/mL (≈ 8.39 µM) | 32 µg/mL (≈ 33.6 µM) | 0.12 µg/mL (≈ 0.126 µM) | 0.06 µg/mL (≈ 0.0629 µM) | 4 µg/mL (≈ 4.2 µM) | 0.06 µg/mL (≈ 0.0629 µM)
CC[C@H]1OC(=O)[C@H](C)C(=O)[C@H](C)[C@@H](O[C@@H]2O[C@H](C)C[C@H](N(C)C)[C@H]2O)[C@@](C)(OC)C[C@@H](C)/C(=N\OCCNCCCOCCCNCc2ccc(Oc3ccccc3)cc2)[C@H](C)[C@@H](O)[C@]1(C)O | 2 µg/mL (≈ 2.12 µM) | 64 µg/mL (≈ 67.9 µM) | ≤ 0.008 µg/mL | 0.06 µg/mL (≈ 0.0636 µM) | 2 µg/mL (≈ 2.12 µM) | ≤ 0.008 µg/mL
CC[C@H]1OC(=O)[C@H](C)C(=O)[C@H](C)[C@@H](O[C@@H]2O[C@H](C)C[C@H](N(C)C)[C@H]2O)[C@@](C)(OC)C[C@@H](C)/C(=N\OCCNCC2CCC(CNCc3cccc(Oc4ccccc4)c3)CC2)[C@H](C)[C@@H](O)[C@]1(C)O (stereo not given in full) | 8 µg/mL (≈ 8.39 µM) | 64 µg/mL (≈ 67.1 µM) | 0.12 µg/mL (≈ 0.126 µM) | 2 µg/mL (≈ 2.1 µM) | 4 µg/mL (≈ 4.2 µM) | ≤ 0.008 µg/mL
CC[C@H]1OC(=O)[C@H](C)C(=O)[C@H](C)[C@@H](O[C@@H]2O[C@H](C)C[C@H](N(C)C)[C@H]2O)[C@](C)(OCC=Cc2cnc3ccccc3c2)C[C@@H](C)C(=O)[C@H](C)[C@H]2NC(=O)O[C@@]21C [CETHROMYCIN] | 0.5 µg/mL (≈ 0.653 µM) | > 128 µg/mL | ≤ 0.008 µg/mL | ≤ 0.008 µg/mL | 0.12 µg/mL (≈ 0.157 µM) | ≤ 0.008 µg/mL
CC[C@H]1OC(=O)[C@H](C)[C@@H](O[C@H]2C[C@@](C)(OC)[C@@H](O)[C@H](C)O2)[C@H](C)[C@@H](O[C@@H]2O[C@H](C)C[C@H](N(C)C)[C@H]2O)[C@](C)(O)C[C@@H](C)C(=O)[C@H](C)[C@@H](O)[C@]1(C)O [ERYTHROMYCIN] | 2 µg/mL (≈ 2.73 µM) | > 128 µg/mL | 4 µg/mL (≈ 5.45 µM) | > 128 µg/mL | 0.25 µg/mL (≈ 0.341 µM) | 0.03 µg/mL (≈ 0.0409 µM)
CC[C@H]1OC(=O)[C@H](C)C(=O)[C@H](C)[C@@H](O[C@@H]2O[C@H](C)C[C@H](N(C)C)[C@H]2O)[C@](C)(OC)C[C@@H](C)C(=O)[C@H](C)[C@H]2N(CCCCn3cnc(-c4cccnc4)c3)C(=O)O[C@]12C [TELITHROMYCIN] | 2 µg/mL (≈ 2.46 µM) | > 128 µg/mL | 0.25 µg/mL (≈ 0.308 µM) | 0.06 µg/mL (≈ 0.0739 µM) | 0.06 µg/mL (≈ 0.0739 µM) | ≤ 0.008 µg/mL
